# Experiments:
# [1] = system: cytosolic calcium in primary airway smooth muscle cells; assay: Calcium image (Fluo-4) of primary airway smooth muscle cells stimulated with acetylcholine; type: cell-based; conditions: 10 μM compound, then 100 μM acetylcholine; around 16 to 18 minutes
# Method: Primary airway smooth muscle cells were stimulated with 100 μM acetylcholine (ACh) (upper panels), resulting elevation and maintenance of calcium signals (arrow heads indicate typical alteration of the cells) for 8 minutes. After washing out ACh, new buffer containing 10 μM Kudinoside D was added, and then stimulated with 100 μM acetylcholine.
# Calcium image (1-3): Ca^2+ signal was measured by recording 488 nm laser excited Fluo-4 fluorescence with a laser confocal microscope (FV-1000, Olympus). After 3 times washing with D-Hanks solution, primary cultured airway smooth muscle cells were loaded with 2.5 μM Fluo-4 AM and 0.02% pluronic acid (F127) in D-Hanks for 30 min at room temperature. Then washed 3 times with D-Hanks, incubated in H-T buffer at 37° C. for 40 min. Ca^2+ signal was measured by recording 488 nm laser excited Fluo-4 fluorescence with a laser confocal microscope (FV-1000, Olympus).
# [2] = system: asthmatic airway constriction in acute asthma mouse model; assay: Airway resistance (Rrs, FlexiVent) in OVA-induced, methacholine-challenged asthma mice; type: in vivo, C57BL/6 mice
# Method: Asthma mice were established as reported previously. Briefly, six to eight-week-old female C57BL/6 mice were carried out by intraperitoneal injection of 100 μg ovalbumin and 4 mg Imject Alum (ThermoFisher Scientific) in total volume of 0.2 mL on days 0 and 14. These mice were then challenged with 1.5%-2% aerosolized ovalbumin for 1 h on days 24, 25 and 26. The efficacy of drugs was evaluated by measuring airway resistance in these mice 24 h after the last challenge.
# (§1) The airway resistance was measured through an invasive method as described in previous reports. In brief, the mice were anesthetized with 240 mg/kg Avertin and the trachea was cannulated with an 18-gauge metal needle. Mechanical ventilation (FlexiVent; SCIREQ Inc., Montreal, Canada) was applied at a frequency of 150 breaths per minute, a tidal volume of 10 ml/kg, and positive end-expiratory pressure of 2.5 cm H2O. Prior to methacholine challenge, deep inflation was applied followed by administration of aerosolized PBS to obtain stabilization of airway resistance (Rrs, cmH2O·s/mL). The Rrs after PBS was considered to be the baseline. Then mice were challenged with sequential concentrations of methacholine with a dose of 2.0, 4.0, 8.0, 16, 32 and 64 mg/mL by an ultrasonic nebulizer until reaching bronchoconstrictive phase that was four to five folds greater than baseline. Three minutes after the last dose of methacholine inhalation, the reagents were delivered by the same ultrasonic nebulizer. The Rrs measurements were performed every 30 s throughout the experiments. The negative control for these studies was PBS, because all the solvents for reagents used here were PBS. As a positive control, albuterol (3 μg; Sigma), the most widely used β-agonist as an effective bronchodilator for asthma therapy, was used.
# as §1, with “Acute asthma model mice were established as reported previously. Briefly, six to eight-week-old female C57BL/6 mice were carried out by intraperitoneal injection of 100 μg ovalbumin and 4 mg Imject Alum (ThermoFisher Scientific) in total volume of 0.2 mL on days 0 and 14. These mice were then challenged with 1.5%-2% aerosolized ovalbumin for 1 h on days 24, 25 and 26. The efficacy of drugs by measuring airway resistance in these mice 24 h was evaluated after the last challenge. The airway” for “The airway”
# [3] = system: permeable (skinned) airway smooth muscle strips; assay: Ca2+-induced sustained contraction of alpha-toxin permeabilized bronchial ring at constant calcium; type: cell-based, C57BL/6J mice; conditions: pCa 4.5 elicited contraction
# Method: To assess the requirement of calcium reduction for kudinoside-mediated relaxation, smooth muscle tissues permeable were made. Briefly, the fresh bronchial ring were separated by sharp dissection from C57BL/6J mice. Following incubation for 10 minutes in H-T buffer, the muscle strips were treated for 5 minutes in Ca^2+-free H-T buffer and for 5 minutes in buffer A (30 mmol/L TES, 0.5 mmol/L dithiothreitol, 50 mmol/L KCl, 5 mmol/L K2EGTA, 150 mmol/L sucrose, pH 7.4), and then were subsequently permeabilized in α-toxin (16,000 units/mL; Sigma) in buffer A for 40 minutes at room temperature.
# Treatment with […] ionomycin (Sigma) in buffer A for 10 minutes was used to deplete Ca^2+ stores. Permeable tissues were washed in pCa 9.0 solution (20 mmol/L TES, 4 mmol/L K2EGTA, 5.83 mmol/L MgCl2, 7.56 mmol/L potassium propionate, 3.9 mmol/L Na2ATP, 0.5 mmol/L dithioerythritol, 16.2 mmol/L phosphocreatine, 15 U/mL creatine kinase, pH 6.9), followed by incubation in pCa 4.5 solution (20 mmol/L TES, 4 mmol/L CaEGTA, 5.66 mmol/L MgCl2, 7.53 mmol/L potassium propionate, 3.9 mmol/L Na2ATP, 0.5 mmol/L dithioerythritol, 16.2 mmol/L phosphocreatine, 15 U/mL creatine kinase, pH 6.9) to elicit a sustained Ca^2+-induced contraction. After wash out the solution, permeable muscle strips were then incubated with pCa 5.0 solution and relaxed by adding Kudinoside D dissolved in pCa 5.0 solution.
smiles,measurement,setting,value
C[C@@H]1O[C@@H](O[C@H]2[C@H](O[C@H]3CC[C@@]4(C)C(CC[C@]5(C)C4C=CC4=C6[C@]7(CC[C@](C)(OC7=O)[C@@]6(C)O)CC[C@]45C)C3(C)C)OC[C@H](O)[C@@H]2O[C@@H]2O[C@H](CO)[C@@H](O)[C@H](O)[C@H]2O)[C@H](O)[C@H](O)[C@H]1O (stereo partly shown) [Kudinoside D],cytosolic calcium signal after acetylcholine stimulation,[1],significant reduction of calcium
same,"reduction of airway resistance, 0.03 μg",[2]; 0.03 μg inhaled,slight reduction
same,"airway resistance reduced to, at 1 minute after inhalation, 0.03 μg","[2]; 0.03 μg inhaled, 1 minute",69.65±5.87%
same,"reduction of airway resistance, 0.3 μg",[2]; 0.3 μg inhaled,significant reduction of airway resistance
same,"airway resistance reduced to, at 1 minute after inhalation, 0.3 μg","[2]; 0.3 μg inhaled, 1 minute",67.79±6.77%
same,"reduction of airway resistance at 3 minutes after inhalation compared with 3 μg albuterol, 0.3 μg","[2]; 0.3 μg inhaled, 3 minutes",more reduction of airway resistance than that of 3 μg of albuterol
same,"reduction of airway resistance, 3 μg",[2]; 3 μg inhaled,significant reduction of airway resistance
same,"airway resistance reduced to, at 1 minute after inhalation, 3 μg","[2]; 3 μg inhaled, 1 minute",45.81±6.87%
same,"reduction of airway resistance at 3 minutes after inhalation compared with 3 μg albuterol, 3 μg","[2]; 3 μg inhaled, 3 minutes",more reduction of airway resistance than that of 3 μg of albuterol
same,relaxation of sustained Ca2+-induced contraction of skinned muscle strip,[3],"could not relax this sustained contraction, and contrarily slightly enhanced it"
